tested on: ecotropic pseudo-typed lentiviral particles (luciferase) in PM1-mCat1 cells; test: Luciferase-based viral integration assay using PM1-mCat1 cells; conditions: Human immunodeficiency virus 1, read-out: IC50 (in µM), viral integration assay

SMILES	IC50 [µM]
CCOc1ncccc1C(=O)OCc1nc(N)c2c(C)c(C)sc2n1 [T5776163, CCOC1=C(C=CC=N1)C(=O)OCC1=NC2=C(C(C)=C(C)S2)C(N)=N1]	4.7
c1ccc(CCNc2nc(CN3CCOCC3)nc3scc(-c4cccs4)c23)nc1 [T6312425, C(CC1=NC=CC=C1)NC1=C2C(SC=C2C2=CC=CS2)=NC(CN2CCOCC2)=N1]	> 10
O=C(CNc1ccccc1-c1ccccc1)Nc1ccccc1Cl [T5943324, ClC1=C(NC(=O)CNC2=C(C=CC=C2)C2=CC=CC=C2)C=CC=C1]	7.79
CN(C1CCCCC1)S(=O)(=O)c1cccc(C#N)c1 [T5339669, CN(C1CCCCC1)S(=O)(=O)C1=CC(=CC=C1)C#N]	5.2
O=C(COc1ccccc1-c1ccccc1)NCc1ccccc1Cn1cccn1 [T5945790, O=C(COC1=C(C=CC=C1)C1=CC=CC=C1)NCC1=C(CN2C=CC=N2)C=CC=C1]	6.78
CCOc1ccc(C(=O)Nc2cc(C)ccc2F)cc1 [T5869032, CCOC1=CC=C(C=C1)C(=O)NC1=C(F)C=CC(C)=C1]	1.1
COc1ccccc1N1CCN(C(=O)c2cc(Cl)ccc2O)CC1 [T6328287, COC1=C(C=CC=C1)N1CCN(CC1)C(=O)C1=C(O)C=CC(Cl)=C1]	3.89
COc1ccc(S(=O)(=O)N(Cc2cccc(C(F)(F)F)c2)c2ccccc2OC)cc1 [T5407044, COC1=CC=C(C=C1)S(=O)(=O)N(CC1=CC(=CC=C1)C(F)(F)F)C1=C(OC)C=CC=C1]	4.11
c1ccc(CNc2nc(CN3CCOCC3)nc3scc(-c4cccs4)c23)cc1 [T5605915, C(NC1=C2C(SC=C2C2=CC=CS2)=NC(CN2CCOCC2)=N1)C1=CC=CC=C1]	4.67
O=C(CSc1nc2ccccc2c(=O)n1Cc1ccco1)N1CCN(c2ccccc2)CC1 [T5344625, O=C(CSC1=NC2=C(C=CC=C2)C(=O)N1CC1=CC=CO1)N1CCN(CC1)C1=CC=CC=C1]	1.72
CC(=O)c1ccccc1NC(=O)CNc1ccccc1-c1ccccc1 [T5989502, CC(=O)C1=C(NC(=O)CNC2=C(C=CC=C2)C2=CC=CC=C2)C=CC=C1]	1.94
O=C(CSc1nnc(C2CC2)o1)NC(c1ccccc1)c1cccs1 (stereo not drawn) [T5964141, O=C(CSC1=NN=C(O1)C1CC1)NC(C1=CC=CS1)C1=CC=CC=C1]	1.26
O=C(CSc1nnc(-c2cccc(Cl)c2)n1-c1ccccc1C(F)(F)F)NCc1ccco1 [T5258076, FC(F)(F)C1=C(C=CC=C1)N1C(SCC(=O)NCC2=CC=CO2)=NN=C1C1=CC(Cl)=CC=C1]	4.76
Cc1cc(Cl)c(C)c(S(=O)(=O)NCCCN2CCCC2=O)c1Cl [T6312190, CC1=C(Cl)C(=C(C)C(Cl)=C1)S(=O)(=O)NCCCN1CCCC1=O]	2.02
COc1ccc(CC(=O)Nc2ccc(OC)cc2)cc1 [T6053460, COC1=CC=C(CC(=O)NC2=CC=C(OC)C=C2)C=C1]	6.46
c1ccc(-c2csc3nc(CN4CCOCC4)nc(NCCC4CCCO4)c23)cc1 (stereo not drawn) [T5948460, C(CC1CCCO1)NC1=C2C(SC=C2C2=CC=CC=C2)=NC(CN2CCOCC2)=N1]	2.33
CN(C1CCCCCC1)S(=O)(=O)c1cccc(C#N)c1 [T6302141, CN(C1CCCCCC1)S(=O)(=O)C1=CC(=CC=C1)C#N]	2.24
C=CCOC(=O)C1=C(C)NC(=S)NC1c1ccc(C(C)C)cc1 (stereo not drawn) [T6203208, CC(C)C1=CC=C(C=C1)C1NC(=S)NC(C)=C1C(=O)OCC=C]	4.37
O=C(COc1ccccc1-c1ccccc1)NCc1ccccc1CN1CCOCC1 [T5781151, O=C(COC1=C(C=CC=C1)C1=CC=CC=C1)NCC1=C(CN2CCOCC2)C=CC=C1]	6.94
CCc1ccc(-c2csc(Cn3c(CN4CCOCC4)nc4ccccc4c3=O)n2)cc1 [T5938606, CCC1=CC=C(C=C1)C1=CSC(CN2C(CN3CCOCC3)=NC3=C(C=CC=C3)C2=O)=N1]	5.91
CCC(C)c1ccc(S(=O)(=O)Nc2ccc(F)cc2C)cc1 (stereo not drawn) [T5989159, CCC(C)C1=CC=C(C=C1)S(=O)(=O)NC1=C(C)C=C(F)C=C1]	1.67
Cc1cnc2c(S(=O)(=O)N3CCN(Cc4ccc5c(c4)OCCO5)CC3)cccc2c1 [T6332191, CC1=CC2=C(N=C1)C(=CC=C2)S(=O)(=O)N1CCN(CC2=CC3=C(OCCO3)C=C2)CC1]	1.42
O=C(Nc1ccccc1N1CCCC1)c1cc(S(=O)(=O)N2CCOCC2)ccc1Cl [T6137813, ClC1=C(C=C(C=C1)S(=O)(=O)N1CCOCC1)C(=O)NC1=C(C=CC=C1)N1CCCC1]	5.04
O=C(COc1ccccc1-c1ccccc1)NCC1CCCCC1 [T5339957, O=C(COC1=C(C=CC=C1)C1=CC=CC=C1)NCC1CCCCC1]	6.88
COc1ccc(N(Cc2ccccc2)S(=O)(=O)c2cccc(C(=O)NCc3ccncc3)c2)cc1 [T5435331, COC1=CC=C(C=C1)N(CC1=CC=CC=C1)S(=O)(=O)C1=CC(=CC=C1)C(=O)NCC1=CC=NC=C1]	3.14
Cc1cccn2c(=O)cc(CN3CC(C(=O)N4CCCCC4)Oc4ccccc43)nc12 (stereo not drawn) [T5615894, CC1=CC=CN2C(=O)C=C(CN3CC(OC4=C3C=CC=C4)C(=O)N3CCCCC3)N=C12]	2.93

SMILES	IC50 [µM]
O=C(Nc1ccc2c(c1)OCCCO2)c1cccc(N2CCCC2=O)c1 [T5609721, O=C(NC1=CC2=C(OCCCO2)C=C1)C1=CC(=CC=C1)N1CCCC1=O]	4.12
O=C(Nc1ccccc1N1CCCC1)c1cc(S(=O)(=O)N2CCOCC2)ccc1F [T6382120, FC1=C(C=C(C=C1)S(=O)(=O)N1CCOCC1)C(=O)NC1=C(C=CC=C1)N1CCCC1]	2.86
c1coc(-c2noc(CNc3ccccc3-n3cccn3)n2)c1 [T6671011, C(NC1=C(C=CC=C1)N1C=CC=N1)C1=NC(=NO1)C1=CC=CO1]	4
COc1ccc(OC)c(C2CCCN2C(=O)C2CC(=O)N(c3ccccc3)C2)c1 (stereo not drawn) [T6517641, COC1=CC(C2CCCN2C(=O)C2CN(C(=O)C2)C2=CC=CC=C2)=C(OC)C=C1]	6.83
c1csc(-c2csc3nc(CN4CCOCC4)nc(NCC4CCCO4)c23)c1 (stereo not drawn) [T6061512, C(NC1=C2C(SC=C2C2=CC=CS2)=NC(CN2CCOCC2)=N1)C1CCCO1]	6.48
Cc1ccccc1-n1nnnc1SCc1nnc(-c2cccs2)o1 [T5805638, CC1=C(C=CC=C1)N1N=NN=C1SCC1=NN=C(O1)C1=CC=CS1]	1.45
Clc1cccc(Nc2nc(CN3CCOCC3)nc3scc(-c4ccccc4)c23)c1 [T5363639, ClC1=CC(NC2=C3C(SC=C3C3=CC=CC=C3)=NC(CN3CCOCC3)=N2)=CC=C1]	2
COc1ccc(NS(=O)(=O)c2cccc(C(=O)NCC(c3ccc(OC)cc3)N3CCCCC3)c2)cc1 (stereo not drawn) [T6213020, COC1=CC=C(NS(=O)(=O)C2=CC(=CC=C2)C(=O)NCC(N2CCCCC2)C2=CC=C(OC)C=C2)C=C1]	2.79
Cc1oc(-c2ccccc2)nc1CN1CC(C(=O)N2CCCCC2)Oc2ccccc21 (stereo not drawn) [T6329376, CC1=C(CN2CC(OC3=C2C=CC=C3)C(=O)N2CCCCC2)N=C(O1)C1=CC=CC=C1]	4.83
O=c1c2ccccc2nc(CN2CCOCC2)n1Cc1nc(-c2ccc(F)cc2)cs1 [T5938605, FC1=CC=C(C=C1)C1=CSC(CN2C(CN3CCOCC3)=NC3=C(C=CC=C3)C2=O)=N1]	8.71
CC(Nc1nc(CN2CCOCC2)nc2sc3c(c12)CCC3)c1cccc(Cl)c1 (stereo not drawn) [T5952126, CC(NC1=C2C3=C(CCC3)SC2=NC(CN2CCOCC2)=N1)C1=CC(Cl)=CC=C1]	1.53
CC(C)CCn1cnc2c1c(=O)n(CC(=O)NC1CC1)c(=O)n2Cc1ccccc1 [T5351795, CC(C)CCN1C=NC2=C1C(=O)N(CC(=O)NC1CC1)C(=O)N2CC1=CC=CC=C1]	4.64
Cc1ccc(S(=O)(=O)N2CCOCC2)cc1C(=O)Nc1ccccc1N1CCCC1 [T5530682, CC1=C(C=C(C=C1)S(=O)(=O)N1CCOCC1)C(=O)NC1=C(C=CC=C1)N1CCCC1]	8.26
Cc1nc(SCC(=O)NCCC(C)C)c(C#N)c(C)c1C [T5989363, CC(C)CCNC(=O)CSC1=C(C#N)C(C)=C(C)C(C)=N1]	7.91
N#Cc1ccccc1S(=O)(=O)N1CCC(CCc2ccccc2)CC1 [T5952497, O=S(=O)(N1CCC(CCC2=CC=CC=C2)CC1)C1=C(C=CC=C1)C#N]	4.27
O=C(Nc1ccccc1O)c1ccccc1Br [T6043692, OC1=C(NC(=O)C2=C(Br)C=CC=C2)C=CC=C1]	4.11
Cc1ccc(-n2nnnc2Sc2nnnn2-c2ccccc2)c(C)c1 [T5595439, CC1=CC(C)=C(C=C1)N1N=NN=C1SC1=NN=NN1C1=CC=CC=C1]	2.98
CC1CCN(c2nc(CN3CCOCC3)nc3scc(-c4cccs4)c23)CC1 [T5932815, CC1CCN(CC1)C1=C2C(SC=C2C2=CC=CS2)=NC(CN2CCOCC2)=N1]	2
COC(=O)c1ccccc1NS(=O)(=O)c1c(F)cc(F)cc1Br [T6007055, COC(=O)C1=C(NS(=O)(=O)C2=C(Br)C=C(F)C=C2F)C=CC=C1]	1.35
Cc1cccc(C)c1NC(=O)CN1CCCC1c1nc2ccccc2s1 (stereo not drawn) [T5823772, CC1=CC=CC(C)=C1NC(=O)CN1CCCC1C1=NC2=C(S1)C=CC=C2]	8.88
C=CCNC(=O)CN1CCN(c2nc3ccccc3s2)CC1 [T6471356, C=CCNC(=O)CN1CCN(CC1)C1=NC2=C(S1)C=CC=C2]	2.37
O=c1[nH]c(CSc2nnc(C3CC3)o2)nc2scc(-c3ccco3)c12 [T5983422, O=C1NC(CSC2=NN=C(O2)C2CC2)=NC2=C1C(=CS2)C1=CC=CO1]	2.28
O=C(Nc1ccc2c(c1)OCO2)c1cccc(N2CCCC2=O)c1 [T5821319, O=C(NC1=CC2=C(OCO2)C=C1)C1=CC(=CC=C1)N1CCCC1=O]	1.58
COC(=O)c1ccc(C(=O)Nc2ncc(C)s2)cc1 [T5650116, COC(=O)C1=CC=C(C=C1)C(=O)NC1=NC=C(C)S1]	2.79
c1csc(-c2csc3nc(CN4CCOCC4)nc(NN4CCCCC4)c23)c1 [T6026407, C(N1CCOCC1)C1=NC2=C(C(=CS2)C2=CC=CS2)C(NN2CCCCC2)=N1]	2.73
CC(=O)c1ccc(NC(=O)CNc2ccccc2-c2ccccc2)cc1 [T5941648, CC(=O)C1=CC=C(NC(=O)CNC2=C(C=CC=C2)C2=CC=CC=C2)C=C1]	7.85

same assay, conditions: Human immunodeficiency virus 1, read-out: IC50s during a 6-month period

SMILES	IC50 [µM]
Cc1nnc(C(=O)NC(C)(C)c2nc(C(=O)NCc3ccc(F)cc3)c(O)c(=O)n2C)o1 [Raltegravir, reference compound]	0.0021 to 0.0079

same assay, conditions: read-out: IC50 (in µM), viral integration assay; Table S3, PM1-mCat1, dose-response hit profiling

SMILES	IC50 [µM]
CCNC(=O)COC(=O)c1c(C)c(-c2cccc(Cl)c2)nc2ccccc12 [T0516-3343, CCNC(=O)COC(=O)C1=C2C=CC=CC2=NC(=C1C)C1=CC(Cl)=CC=C1]	6.07
